The values below come from patent US6440468B1, “Method for obtaining apolar and polar extracts of curcuma and applications thereof” (A.S.A.C. Pharmaceutical International, A.I.E., priority 1994, dated 2002).

This data set is described as follows: Thermal stability of curcuminoids in the apolar fraction. The format is physicochemical. Conditions: stabilized as of 24-48 hours of exposure. The method, then: Initially, a greater degradation is produced which is stabilized as of 24-48 hours of exposure. Degradation is kept at 2% for temperatures lower than 50° C. and at 4% at 80° C.

On to `COc1cc(/C=C/C(=O)CC(=O)/C=C/c2ccc(O)c(OC)c2)ccc1O` [curcumin, curcumin (dipheruloylmethane)], for which the “thermal degradation of curcuminoids” value reads like this: (80° C) 4%; (temperatures lower than 50° C) 2%.
